How the values were obtained:
subtilisin = conditions: Keller et al, 1991; cited from earlier work
Savinase [1] = molecular target: T1, Savinase (Lederbergia lenta, UniProt P29600); test: Determination of Ki: inhibition of Savinase (SAAPFpNA substrate); assay type: biochemical; set-up: purchased Novo Nordisk A/S; conditions: 0.1M Tris-HCl pH 8.6, 25° C.
T1 sequence (P29600 1-269): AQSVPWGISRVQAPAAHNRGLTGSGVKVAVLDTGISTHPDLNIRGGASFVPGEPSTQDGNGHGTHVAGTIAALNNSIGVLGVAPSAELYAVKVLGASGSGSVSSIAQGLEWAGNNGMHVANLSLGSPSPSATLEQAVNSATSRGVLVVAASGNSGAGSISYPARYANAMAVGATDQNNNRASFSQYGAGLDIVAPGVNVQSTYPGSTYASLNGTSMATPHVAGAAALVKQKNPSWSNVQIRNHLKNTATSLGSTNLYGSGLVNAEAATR
Text: b) Determination of Ki : The inhibition constant Ki may be determined by using standard methods, for reference see Keller et al, Biochem. Biophys. Res. Com. 176, 1991, pp.401-405; J. Bieth in Bayer-Symposium "Proteinase Inhibitors", pp. 463-469, Springer-Verlag, 1974 and Lone Kierstein Hansen in "Determination of Specific Activities of Selected Detergent Proteases using Protease Activity, Molecular Weights, Kinetic Parameters and Inhibition Kinetics", PhD-report, Novo Nordisk A/S and University of Copenhagen, 1991.
The inhibition constant Ki for the inhibition of Savinase™ (available from Novo Nordisk A/S) was determined using standard methods under the following conditions: […]
The initial rate of substrate hydrolysis was determined at nine substrate concentrations in the range of 0.01 to 2 mM using a Cobas Fara automated spectrophotometer. The kinetic parameters Vmax and Km were determined using ENZFITTER (a non-linear regression data analysis program).
kcat was calculated from the equation Vmax =kcat X [Eo ]. The concentration of active enzyme [Eo ] was determined by active site titration using tight-binding protein proteinase inhibitors. The inhibition constant Ki was calculated from plots of Km /kcat as a function of the concentration of inhibitor. The inhibitors were assumed to be 100% pure and the molar concentrations were determined using weighing numbers and molecular weights.

Savinase [2] = molecular target: T1, Savinase; test: Storage Stability Test in Liquid Detergent (Detergent base, US-type), Example 3; assay type: biochemical; set-up: purchased Novo Nordisk A/S; conditions: for Improvement Factor (IFI): relative to Boric Acid, US-type detergent, 1% w/w Savinase (14 KNPU/g), stabilizer 5 mmole/kg (boric acid 160 mmole/kg), 0, 3, 7 and 14 days at 30° C.
Method: (§1) a) Storage Stability Test in Liquid Detergent: Enzyme(s) and stabilizer are added to a liquid detergent formulation and stored at well defined conditions. The enzyme activity of each enzyme is determined as a function of time, e.g. after 0, 3, 7 and 14 days.
(§2) To calculate the inhibition efficiency from the storage stability date a reaction mechanism is proposed.
(§3) From these reactions three coupled differential equations are derived describing the deactivation of P, L and PI. The reaction rate constants are derived from storage stability data by the use of a parameter estimation method (Gauss-Newton with the Levenberg modification). The storage stability data give the concentration of (P+PI) and L as a function of time.
(§4) Reaction IV is excluded from the system to reduce the number of parameters thereby describing the stability of the inhibited enzyme by only one reaction rate constant (from equation V).
(§5) In all experiments there is a large surplus of inhibitor molecules compared to protease molecules, i.e. a constant concentration of inhibitor (corresponding to the added amount of inhibitor) is a reasonable assumption.
(§6) An improvement factor is thus derived: [formula] IFI measures the inhibition efficiency given by the inhibition constants KI from reaction III.
Phenyl boronic acid derivatives were also tested in storage stability tests in liquid detergents using the method described previously under the following conditions: […]

Savinase [3] = molecular target: T1, Savinase; conditions: US-type detergent; 1% w/w Savinase (14 KNPU/g); 5 mmole/kg (boric acid 160 mmole/kg); 0, 2, 7 and 14 days at 30° C.
Method: as §1, §2, §3, §4, §5, §6

proteolytic enzymes = conditions: background statement; WO 92/19707 for aryl boronic acids; cited from earlier work
Savinase [4] = molecular target: T1, Savinase; test: Storage Stability Test in a Commercial Detergent (Omo Micro), Example 4; assay type: biochemical; set-up: purchased Novo Nordisk A/S; conditions: 1.33 mM stabilizer (boric acid 160 mM), 1% w/w Savinase (8 KNPU/g), 1% w/w Lipolase (100 KLU/g), 0, 7, 15, and 21 days at 40° C.
Method: An improvement factor is thus derived: [formula]
The inhibition effectiveness IFI of 4-formyl-phenyl-boronic acid was also found in a commercial detergent Omo Micro.
Omo Micro was bought in a Danish supermarket. The enzymes were inactivated at 90° C. (overnight).
The following dosages in the detergent were used:
4-Formyl-phenyl-boronic acid: 1.33 mM, or
Protease: 1% w/w Savinase (8 KNPU/g), and
Lipase: 1% w/w Lipolase (100 KLU/g).
Storage: 0, 7, 15, and 21 days at 40° C.

For CB(O)O [methylboronic acid], the “capacity as subtilisin inhibitor” value (subtilisin) is listed as “poorest inhibitor”.

In the case of CC(=O)Nc1cccc(B(O)O)c1 [acetamidophenyl boronic acid], the Ki (Savinase [1]) is reported as 1000 µM and the “Improvement Factor (IFI)” value (Savinase [2]) is reported as 300.

In the case of OB(O)c1cc(Cl)cc(Cl)c1 [3,5-dichlorophenylboronic acid], the “capacity as subtilisin inhibitor” value (subtilisin) is listed as “particularly effective”.

O=C(O)c1ccc(B(O)O)cc1 [4-Carboxybenzeneboronic acid] showed an IFI (Savinase [3]) of 22.

For O=Cc1cccc(B(O)O)c1 [3-formyl-phenyl-boronic acid], the “Improvement Factor (IFI)” value (Savinase [2]) was 230.

For OB(O)O [Boric acid], the “inhibition of proteolytic enzymes” value (proteolytic enzymes) is given as “reversibly inhibit proteolytic enzymes”.

In the case of O=Cc1ccccc1B(O)O [2-formyl-phenyl-boronic acid], the “Improvement Factor (IFI)” value (Savinase [2]) is reported as 36.

With O=Cc1ccc(B(O)O)cc1 [4-formyl-phenyl-boronic acid, 4-Formyl-phenyl-boronic acid] the Ki (Savinase [1]) was 300 µM, the “storage stability properties versus 2-formyl-phenyl-boronic acid” value (Savinase [2]; calculated on molar basis) was “at least 25 times better” and the “storage stability properties versus 3-formyl-phenyl-boronic acid” value (Savinase [2]; calculated on molar basis) was “at least four times better”. The “storage stability properties versus acetamidophenyl boronic acid” value (Savinase [2]; calculated on molar basis) was “at least three times better”, the “Improvement Factor (IFI)” value (Savinase [2]) was 1000 and the “inhibition effectiveness IFI” value (Savinase [4]) was 2500.

— patent publication US5972873A, “4-substituted-phenyl-boronic acids as enzyme stabilizers” (Novo Nordisk A/S, priority 1995, dated 1999)
